These results are taken from patent publication US20210137964A1, “GLYCAN COMPOSITIONS AND METHODS OF USE” (KALEIDO BIOSCIENCES, INC., priority 2016, published 2021).

Common to all, as to type: cell-based
What all share (details): ex vivo 1% w/v fecal slurry from 12 subjects, glycan 0.5% w/v, 37° C., 18 hours, anaerobic

Assay [1] relates to Firmicutes, Proteobacteria, and/or Actinobacteria. In words: Ex vivo fecal slurry assay, 16S rRNA sequencing (Example 11). The source says: (§1) An ex vivo assay was designed to determine if glycans can be used to modulate a complex community of microorganisms and if the glycans produced consistent effects across communities obtained from multiple (twelve) subjects. Fecal samples and slurries were handled in an anaerobic chamber (AS-580, Anaerobe Systems) featuring a palladium catalyst. Glycans ara100, gal100, glu60man40, glu100, glu50gal50, gal33man33ara33, man75gal25, glu33gal33man34, glu33gal33Ara33, man100, man52glu29gal19 and commercially available glycans lactulose (Alfa Aesar) and FOS (Nutraflora FOS; NOW Foods, Bloomingdale Ill.) were included in the study. The fecal sample donations obtained from 12 subjects were stored at −80° C. To prepare working stocks the fecal samples were transferred into the anaerobic chamber and allowed to thaw.

The test system of assay [2] is Enterobacteriales/Enterobacteriaceae microbes. In words: Ex vivo fecal slurry assay, 16S rRNA sequencing (Example 19).
Text: as §1

In assay [3] the test system is Ruminococcaceae/Ruminococcus microbes. In words: Ex vivo fecal slurry assay, 16S rRNA sequencing (Example 21).
Text: as §1

Assay [4] concerns Actinobacteria and/or Coriobacteriaceae/Gordonibacter. In words: Ex vivo fecal slurry assay, 16S rRNA sequencing (Example 13).
Text: as §1

The subject of assay [5] is Enterococcaceae/Enterococcus and/or Enterobacteriaceae/Escherichia/Shigella microbes. In words: Ex vivo fecal slurry assay, 16S rRNA sequencing (Example 18).
Text: as §1

The test system of assay [6] is Enterococcaceae/Enterococcus and/or Bifidobacteriaceae/Bifidobacterium. In words: Ex vivo fecal slurry assay, 16S rRNA sequencing (Example 15).
Text: as §1

For assay [7], the system named is Enterobacteriaceae/Escherichia/Shigella microbes. In words: Ex vivo fecal slurry assay, 16S rRNA sequencing (Example 17).
Text: as §1

`OC[C@H]1O[C@@H](O[C@@H]2[C@@H](CO)OC(O)(CO)[C@H]2O)[C@H](O)[C@@H](O)[C@H]1O` (mixture of isomers) [lactulose]: the “levels of Firmicutes, Proteobacteria, and/or Actinobacteria” value in assay [1] was “decrease”. In assay [2], the “levels of Enterobacteriales/Enterobacteriaceae microbes” value is on record as “decrease”. Also, the “levels of Ruminococcaceae/Ruminococcus microbes” value in assay [3] was “decrease”. For the same compound, in assay [4], the “levels of Actinobacteria and/or Coriobacteriaceae/Gordonibacter” value is listed as “decrease”. In assay [5], the “levels of Enterococcaceae/Enterococcus and/or Enterobacteriaceae/Escherichia/Shigella microbes” value is on record as “decrease”. Besides, in assay [6], the “levels Enterococcaceae/Enterococcus and/or Bifidobacteriaceae/Bifidobacterium” value is reported as “increase”. In addition, the “levels of Enterobacteriaceae/Escherichia/Shigella microbes” value in assay [7] is “decrease”.
